Test system: A431 cells
Assay: Inhibition of A431 cells by 225-CDR peptides (3H-thymidine)
Assay type: cell-based, human
Conditions: 72 hours, FIG. 5
Description: These peptides were dissolved in PBS at a concentration of 1 mg/ml. A431 cells were plated at 1000 cells per well in 96 well plates. Peptides were added at various concentrations. […] Plates were incubated for 72 hours at 37° C. and pulsed overnight with ^3H-thymidine. Cells were harvested and counted in a liquid scintillation counter. Percent inhibition is defined as the decrease in 3-H thymidine incorporation of antibody or peptide treated cells compared to cells grown in the absence of antibody or peptide.

Row | Substance | inhibition of A431 cells (3H-thymidine incorporation)
1 | GVIWSGGNTDYNTPFTSR [heavy chain CDR-2] | inhibited
2 | NYGVH [heavy chain CDR-1] | inhibited

— patent US7060808B1, “Humanized anti-EGF receptor monoclonal antibody” (ImClone Systems Incorporated, priority 1995, dated 2006)
